The numbers were not newly measured in patent US11134680B2, “Disinfectant having organic acids” (Bode Chemie GmbH, priority 2015, dated 2021), which cites them from elsewhere.

Where only a bound is given, the exact number is not on record here.

The conditions of series [1]: at 20° C.
Series [2] concerns Staphylococcus aureus. As to conditions: exposure time of 72 hours.
Series [3] relates to C. albicans. As to conditions: 72 hours.

Consider `CC(O)C(=O)O` (centres unmarked) [lactic acid], for which, in series [1], the pKa is 3.87. The reduction factor in series [2] (concentration of 0.3%) is listed as over 5 log.

For `O=C([O-])c1ccccc1.[Na+]` [sodium benzoate], in series [3] (>5 log), the MMC is 1200 µg/mL. Moreover, the “reduction (microbicidal action)” value in series [3] (application solution of 0.12%) is over 5 log.

Regarding `CC(=O)O` [acetic acid], the “minimum inhibitory concentration (MIC)” value in series [2] was 9%.

The term pKa denotes the negative logarithm of the acid dissociation constant.
